# According to US20250312493A1, “FLUOROPHORE-LOADED GELATIN-BASED NANOPARTICLES FOR NEAR-INFRARED IMAGING” (The Board of Trustees of the University of Illinois, priority 2022, published 2025):
# Assays:
# 4T1 tumor = assay: In vivo NIR fluorescence imaging, tumor to background ratio; design: species or system mice
# Protocol: Animal tumor model: Female immunodeficient mice (J:NU, 2 months old, average body weight 25 g) were purchased from the Jackson Laboratory (Bar Harbor, Maine, USA). Animal study was performed in strict accordance with the recommendations in the Guide for the Care and Use of Laboratory Animals of the National Institutes of Health. Breast cancer xenograft was established by the orthotopic administration of 100 μl 4T1 cell solution (10^6 cells per injection) at the mammary fat pad of the second nipple of the left side of each mouse using a 27G½ needle. Anesthesia was maintained by mask inhalation of 1.5-2.0% isoflurane throughout the procedure.
# In vivo and ex vivo NIR fluorescence (NIRF) imaging: When the tumor area reached 10 mm^2 within 14 days, nine tumor-bearing mice were administered with ICG, ICG-GNP I or ICG-GNP II, i.e., three mice for each probe, […] The mice administered with ICG-GNP II were imaged using a bioinspired imaging sensor developed for NIRF image-guided surgery. At each time point, the fluorescence from the primary tumor and surrounding tissues (background) of mice under 2% isoflurane were recorded at 37° C. as regions of interest using the IVIS. A ratio between the mean fluorescence from the tumor and background was assessed and expressed as a TBR. […] The fluorescence intensity of each organ or tissue was acquired using the IVIS and bioinspired imaging sensor.
# [1] = Fluorescence intensity at various ICG concentrations in PBS (IVIS); assay type: physicochemical; conditions: 0.05 μM-100 μM ICG
# Protocol: GNP I or GNP II dispersed in 1 ml of ICG in DI-H2O, with a GNP-to-ICG weight ratio of 20, were incubated for 2 hours at 25° C. The resulting suspension was centrifuged (13,000 rpm/5 min) to discard free ICG in the supernatant. The fluorescence intensity of naked ICG (ICG-free), ICG-loaded GNP I (ICG-GNP I) and GNP II (ICG-GNP II) at various ICG concentrations was recorded and quantified using an In Vivo Imaging System (IVIS, Perkin Elmer, Waltham, MA, USA) (ex 740/em 800 nm).
# [2] = Fluorescence intensity of blood after intravenous administration; assay type: in vivo, healthy nude mice; conditions: 24-hour post-administration, equivalent to 2 mg/kg ICG
# Protocol: Healthy nude mice were administered with either 100 μl PBS solutions of ICG-free or ICG-GNP I (equivalent to 2 mg/kg ICG) intravenously via retro-orbital injection. 100 μl of blood was collected from the lateral tail vein immediately and 24 hours after the administration, transferred to a 96-well plate, and analyzed their fluorescence intensity using the IVIS (n=3).
structure (smiles),measurement,setting,value
"CC1(C)C(/C=C/C=C/C=C/C=C2\N(CCCCS(=O)(=O)O)c3ccc4ccccc4c3C2(C)C)=[N+](CCCCS(=O)(=O)[O-])c2ccc3ccccc3c21 [ICG-free, indocyanine green]",differences in MFI between the tumor and background,4T1 tumor; 1 mg/kg dose,no measurable differences
same,TBR (tumor to background ratio),"4T1 tumor; during a 24-hour period, 2 mg/kg dose, IVIS",~1.5
same,ICG concentration above which MFI decreases,[1],above 50 μM
same,ICG concentration at which MFI reaches a peak,[1],10 µM
same,fluorescence of blood samples,[2],minimal fluorescence
